{"source": "ChEMBL document CHEMBL5550152", "about": "“Design, synthesis and evaluation of novel prostate-specific membrane antigen-targeted aryl [18F]fluorosulfate PET tracers” (Bioorg Med Chem, 2024)", "key": {"[1]": {"experiment": "Stability of the compound in PBS buffer measured after 4 hrs by radio-HPLC analysis", "type": "physicochemical"}, "[2]": {"experiment": "Stability in mouse plasma measured after 4 hrs by radio-HPLC analysis", "type": "ADME, cell-free"}, "[3]": {"experiment": "Drug uptake in human 22Rv1 cells at 3.7 10^-2MBq measured after 4 hrs relative to control", "type": "ADME, cell-based", "details": "cwr22r; call rule not given here"}, "[4]": {"experiment": "Drug uptake in human 22Rv1 cells at 3.7 10^-2MBq pretreated with 2-PMPA for 30 mins followed by compound addition and measured after 4 hr relative to control", "type": "ADME, cell-based", "details": "cwr22r"}, "[5]": {"experiment": "Drug uptake in human 22Rv1 cells at 3.7 10^-2MBq measured after 1 hr", "type": "ADME, cell-based", "details": "cwr22r"}, "[6]": {"experiment": "Drug uptake in human 22Rv1 cells at 3.7 10^-2MBq pretreated with 2-PMPA for 30 mins followed by compound addition and measured after 1 hr", "type": "ADME, cell-based", "details": "cwr22r"}, "[7]": {"experiment": "Drug uptake in mouse tumor xenografted with human 22Rv1 cells at 7.4 MBq, iv measured after 2 hrs by PET imaging analysis relative to control", "type": "ADME, organism-based, Neoplasm, CWR22R", "details": "in vivo"}}}
{"smiles": "O=C(O)CC[C@H](NC(=O)N[C@@H](CCCCNC(=O)[C@H](Cc1ccc2ccccc2c1)NC(=O)c1ccc(CNC(=O)[C@H](CCC(=O)O)NC(=O)[C@H](CCC(=O)O)NC(=O)c2ccc(OS(=O)(=O)[18F])cc2)cc1)C(=O)O)C(=O)O", "values": [{"measurement": "Stability", "setting": "[1]", "value": "Stable"}, {"measurement": "Stability", "setting": "[2]", "value": "Stable"}, {"measurement": "Drug uptake", "setting": "[3]", "value": 0.65, "unit": "%"}, {"measurement": "Drug uptake", "setting": "[4]", "value": 0.14, "unit": "%"}, {"measurement": "Drug uptake", "setting": "[5]", "value": "Not Active"}, {"measurement": "Drug uptake", "setting": "[6]", "value": "Not Active"}, {"measurement": "Drug uptake", "setting": "[7]", "value": 2.68, "unit": "% ID/g"}]}
